# Assay results: article PMC7411736, “Effects of Sesamin, the Major Furofuran Lignan of Sesame Oil, on the Amplitude and Gating of Voltage-Gated Na^+ and K^+ Currents” (Molecules, 2020)
# pIC50, pKd: −log10 of the molar value. Read-outs that look alike come from different tables or passages of the source.
# How the values were obtained:
# Assay type in all cases: cell-based, rat
# [1] = tested on: delayed rectifier K+ currents (IK(DR)) in GH3 cells; assay: Whole-cell patch-clamp of delayed rectifier K+ current (1-sec step depolarization)
# Method: We next examined whether the presence of SSM is able to modify IK(DR) present in GH3 cells. To achieve this goal, we bathed cells in Ca^2+-free Tyrode’s solution which contained 1 μM TTX, and then filled up the recording electrode by using K^+-containing solution. When cells were exposed to SSM at a concentration of 3 μM, the amplitude of IK(DR) in response to a 1-sec step depolarization was unchanged. It is noted, however, that the IK(DR) amplitudes responding to different levels of depolarizing command steps were decreased by the addition of 10 μM SSM, though the activation time course of IK(DR) evoked by membrane depolarization remained unchanged.
# (§1) The bath solution (i.e., a HEPES-buffered normal Tyrode’s solution) utilized in the present study was composed of 136 mM NaCl, 5.4 mM KCl, 1.8 mM CaCl2, 0.53 mM MgCl2, 5.5 mM glucose, and 5.5 mM HEPES titrated with NaOH to pH 7.4. To measure macroscopic IK(DR) and Ih, we filled patch pipettes by using a solution containing 130 mM K-aspartate, 20 mM KCl, 1 mM KH2PO4, 1 mM MgCl2, 3 mM Na2ATP, 0.1 mM Na2GTP, 0.1 mM EGTA, and 5 mM HEPES adjusted with KOH to pH 7.2. To record INa and INa(R), we substituted K^+ ions in the pipette solution inside the electrode for equmolar Cs^+ ions and the pH value in the solution was adjusted to 7.2 with CsOH. […]
# (§2) On the day of each experiment, cells were dispersed with a 1% trypsin/EDTA solution and a few drops of cell suspension were rapidly placed in a custom-built recording chamber mounted on the stage of an inverted DM-IL microscope (Leica; Major Instruments, Kaohsiung, Taiwan). […] We measured ion currents in the whole-cell model of a standard patch-clamp technique with dynamic adaptive suctioning (i.e., decremental change of suction pressure in response to a progressive increase in the electrode resistance), with the aid of an RK-400 (Bio-Logic, Claix, France) or an Axopatch-200B (Molecular Devices, Sunnyvale, CA) patch amplifier. […] During the measurements, the recorded area on the vibration-free table was shielded by using a Faraday cage (Scitech, Seoul, South Korea). […]
# [2] = tested on: M-type K+ currents (IK(M)) in GH3 cells; assay: Whole-cell patch-clamp of M-type K+ current (depolarization from −50 to −10 mV, 1 sec); details: amplitude at end of pulse, read-out: IC50 for decrease of IK
# Excerpt: The following experiments were further undertaken to determine whether the addition of SSM could exert any perturbations on the amplitude or gating of IK(M) in these cells. Cells were bathed in high-K^+, Ca^2+-free solution, and the recording pipette was then filled with K^+-enriched solution. Figure 5 illustrates that the presence of SSM can result in a concentration-dependent depression in the amplitude of IK(M) during step depolarization.
# The bath solution (i.e., a HEPES-buffered normal Tyrode’s solution) utilized in the present study was composed of 136 mM NaCl, 5.4 mM KCl, 1.8 mM CaCl2, 0.53 mM MgCl2, 5.5 mM glucose, and 5.5 mM HEPES titrated with NaOH to pH 7.4. […]
# On the day of each experiment, cells were dispersed with a 1% trypsin/EDTA solution and a few drops of cell suspension were rapidly placed in a custom-built recording chamber mounted on the stage of an inverted DM-IL microscope (Leica; Major Instruments, Kaohsiung, Taiwan). […] We measured ion currents in the whole-cell model of a standard patch-clamp technique with dynamic adaptive suctioning (i.e., decremental change of suction pressure in response to a progressive increase in the electrode resistance), with the aid of an RK-400 (Bio-Logic, Claix, France) or an Axopatch-200B (Molecular Devices, Sunnyvale, CA) patch amplifier. […]
# [3] = tested on: resurgent INa (INa(R)) in GH3 cells; assay: Whole-cell patch-clamp of resurgent INa (step to +20 mV, repolarization to −50 to 0 mV); details: 1 μM; at −30 mV; control 46 ± 6 pA; n = 8
# Excerpt: We next wanted to determine whether SSM exerts any effects on INa(R) identified from these cells. The whole-cell experiments on INa(R) were undertaken when each cell was voltage clamped at −80 mV and a brief depolarizing step to +20 mV was delivered to activate transient INa. The INa(R) upon repolarization to various potentials ranging between −50 and 0 mV was thereafter measured at the end of voltage pulses (Figure 4). The effect of SSM on INa(R) was examined at various membrane potentials, and the I-V relationship of INa(R) with or without the addition of SSM was constructed. […]
# as §2
# [4] = tested on: hyperpolarization-activated cation currents (Ih) in GH3 cells; assay: Whole-cell patch-clamp of hyperpolarization-activated cation current (−40 to −110 mV)
# Method: In the following experiments, we further studied whether the presence of SSM could perturb another type of inwardly directed current, i.e., Ih. Cells were exposed to Ca^2+-free Tyrode’s solution containing 1 μM TTX and the pipette was filled with K^+-containing solution. As the hyperpolarizing command pulse from −40 to −110 mV with a duration of 2 sec was delivered, Ih with a slowly activating property was robustly evoked, as observed previously. […] Cilobradine has recently been reported to decrease Ih amplitude, as well as to alter activation kinetics present in different types of excitable cells.
# as §1, §2
# [5] = tested on: voltage-gated Na+ currents (INa) in pituitary GH3 cells; assay: Whole-cell patch-clamp of voltage-gated Na+ current evoked by depolarization from −80 to −10 mV; details: for Effect on peak amplitude of INa: −80 to −10 mV (Figure 2); for pIC50: GH3 cells, depolarization −80 to −10 mV; for Effect on SSM-induced inhibition of peak INa: 10 μM added in continued presence of SSM (3 μM)
# Method: In an initial step of the experiments, we examined the effects of SSM on the amplitude and gating of INa in response to rapid membrane depolarization. Cells were bathed in Ca^2+-free Tyrode’s solution containing 10 mM tetraethylammonium chloride (TEA) and the recording pipette was backfilled with a Cs^+-containing solution. […] For example, when rapid membrane depolarization from −80 to −10 mV with a duration of 40 msec was delivered (indicated in the inset of Figure 1A) to evoke INa, the addition of 3 μM SSM caused a decrease in the peak or sustained amplitude of INa to 139 ± 11 pA (n = 11, P < 0.05) or 12 ± 3 pA (n = 11, P < 0.05), respectively, from the control values of 248 ± 18 or 21 ± 2 pA (n = 11). After the removal of SSM, the peak and sustained amplitude returned to 232 ± 16 or 19 ± 2 pA (n = 7, P < 0.05).
# The bath solution (i.e., a HEPES-buffered normal Tyrode’s solution) utilized in the present study was composed of 136 mM NaCl, 5.4 mM KCl, 1.8 mM CaCl2, 0.53 mM MgCl2, 5.5 mM glucose, and 5.5 mM HEPES titrated with NaOH to pH 7.4. To measure macroscopic IK(DR) and Ih, we filled patch pipettes by using a solution containing 130 mM K-aspartate, 20 mM KCl, 1 mM KH2PO4, 1 mM MgCl2, 3 mM Na2ATP, 0.1 mM Na2GTP, 0.1 mM EGTA, and 5 mM HEPES adjusted with KOH to pH 7.2. To record INa and INa(R), we substituted K^+ ions in the pipette solution inside the electrode for equmolar Cs^+ ions and the pH value in the solution was adjusted to 7.2 with CsOH. To measure IK(erg) and IK(M), cells were bathed in a high-K^+ solution containing 145 mM KCl, 0.53 mM MgCl2, and 5 mM HEPES-KOH buffer, pH 7.4. All solutions were prepared using deionized water from a Millipore Milli-Q purification system (ρ = 18 MΩ·cm) (Merck, Ltd., Taipei, Taiwan). The pipette solution and culture medium were filtered on the day of use with a sterile Acrodisc® syringe filter with a 0.2-μm Supor® membrane (Bio-Check; New Taipei City, Taiwan).
# The pituitary adenomatous cell line, GH3, was acquired from the Bioresource Collection and Research Center ((BCRC-60015, https://catalog.bcrc.firdi.org.tw/BcrcContent?bid=60015); Hsinchu, Taiwan). Cells were maintained in Ham’s F-12 medium supplemented with 2.5% fetal bovine serum (v/v), 15% horse serum (v/v), and 2 mM L-glutamine in a humidified environment of 5% CO2/95% air. When well differentiated, GH3 cells were transferred to a serum- and Ca^2+-free medium. Electrical recordings were performed 5 or 6 days after cells were cultured with 60–80% confluence.
# On the day of each experiment, cells were dispersed with a 1% trypsin/EDTA solution and a few drops of cell suspension were rapidly placed in a custom-built recording chamber mounted on the stage of an inverted DM-IL microscope (Leica; Major Instruments, Kaohsiung, Taiwan). They were immersed at room temperature (20–25 °C) in normal Tyrode’s solution, the composition of which is elaborated above. We measured ion currents in the whole-cell model of a standard patch-clamp technique with dynamic adaptive suctioning (i.e., decremental change of suction pressure in response to a progressive increase in the electrode resistance), with the aid of an RK-400 (Bio-Logic, Claix, France) or an Axopatch-200B (Molecular Devices, Sunnyvale, CA) patch amplifier. The microelectrodes used were prepared from Kimax-51 borosilicate capillaries with a 1.5-mm outer diameter (#34500; Kimble; Dogger, New Taipei City, Taiwan) by using a PP-830 vertical puller (Narishige, Taiwan Instrument, Taipei, Taiwan). The recording electrodes had their tip resistances, which ranged between 3 and 5 MΩ, as they were filled up with the different internal solutions elaborated above. During the measurements, the recorded area on the vibration-free table was shielded by using a Faraday cage (Scitech, Seoul, South Korea). […]
# [6] = amplitude at beginning of pulse, read-out: IC50 for decrease of peak INa
# [7] = amplitude at end of pulse, read-out: IC50 for decrease of sustained INa
smiles,measurement,setting,value
"c1cc2c(cc1[C@H]1OC[C@H]3[C@@H]1CO[C@@H]3c1ccc3c(c1)OCO3)OCO2 [SSM, [1S-(1α,3aα,4α,6aα)] -5,5’- (tetrahydro-1H,3H-furo [3–4-c]furan-1,4-diyl)bis-1,3-benzodioxole]",Effect on amplitude of IK(DR),"[1]; 3 μM, 1-sec step depolarization",unchanged
same,IK(DR) amplitude,"[1]; 10 μM, at +40 mV, control 598 ± 34 pA, n = 8",454 ± 29 pA
same,Decrease of IK(DR) amplitude,"[1]; 10 μM, at +40 mV, n = 8",23 ± 4%
same,pIC50,[2],5.32
same,INa(R) amplitude,[3],22 ± 5 pA
same,Ih amplitude at end of hyperpolarizing step,"[4]; 10 μM, at −110 mV, control 388 ± 24 pA, n = 9",386 ± 26 pA
same,Effect on peak amplitude of INa,[5]; 3 μM,produced inhibitory effects
same,Sustained amplitude of INa,"[5]; 3 μM, −80 to −10 mV, 40 msec, control 21 ± 2 pA, n = 11",12 ± 3 pA
same,Peak amplitude of INa,"[5]; 3 μM, −80 to −10 mV, 40 msec, control 248 ± 18 pA, n = 11",139 ± 11 pA
same,Effect on peak component of INa,[5]; 0.1 to 0.3 μM,little or no effect
same,Effect on sustained component of INa,[5]; 0.1 to 0.3 μM,effectively blocked
same,pIC50,[5]; [6],5.14
same,pIC50,[5]; [7],6.22
same,pKd,"[5]; first-order reaction scheme, open-state block, read-out: Dissociation constant (KD = k−1/k+1*) of INa block",6.03
same,Unblocking (backward) rate constant k−1 of INa block,[5]; from intercept of 1/τinact(S) versus [SSM],0.0415 msec^−1
same,Blocking (forward) rate constant k+1* of INa block,[5]; from slope of 1/τinact(S) versus [SSM],0.0449 msec^−1μM^−1
same,Peak amplitude of INa after removal of compound,"[5]; washout after 3 μM, n = 7",232 ± 16 pA
same,Sustained amplitude of INa after removal of compound,"[5]; washout after 3 μM, n = 7",19 ± 2 pA
"c1cc2c(cc1O[C@H]1OC[C@H]3[C@@H]1CO[C@@H]3c1ccc3c(c1)OCO3)OCO2 [SesA, 5-[(1S,3aR,4R,6aR)-4-(1,3-benzodioxol-5-yloxy)tetrahydro-1H,3H-furo[3,4-c]furan-1-yl]-1,3-benzodioxole]",Effect on Ih amplitude,[4]; 10 μM,minimal effect
same,Effect on peak amplitude of INa,[5]; 3 μM,produced inhibitory effects
same,pIC50,[5]; [6],5.01
same,pIC50,[5]; [7],5.60
"CCCc1nc2c(C)cc(-c3nc4ccccc4n3C)cc2n1Cc1ccc(-c2ccccc2C(=O)O)cc1 [telmisartan, reference compound]",Effect on SSM-induced inhibition of peak INa,[5],effective in reversing
"Cc1c(F)c(F)c(COC(=O)[C@@H]2[C@H](/C=C(\Cl)C(F)(F)F)C2(C)C)c(F)c1F (racemic) [tefluthrin, reference compound]",Effect on SSM-induced inhibition of peak INa,[5],effective in reversing
"COc1ccc(CCN2CCC[C@H](CN3CCc4cc(OC)c(OC)cc4CC3=O)C2)cc1OC [cilobradine, reference compound]",Effect on Ih amplitude,[4]; 3 or 10 μM added in continued presence of SSM (10 μM),highly effective at inhibiting
